The NIST ThermoML archive (doi:10.1016/j.fluid.2005.07.017)

Experiment: xn = mol fraction of the nth substance listed
Settings: Liquid, Vibrating tube method

c1ccsc1 [thiophene] + O=C=O
Settings	mass density [kg/m3]
342.91 K, 11019 kPa, x2 = 0.3818	967.88
342.91 K, 11995 kPa, x2 = 0.3818	969.76
342.91 K, 12980 kPa, x2 = 0.3818	971.64
342.91 K, 14033 kPa, x2 = 0.3818	973.6
342.91 K, 15024 kPa, x2 = 0.3818	975.41
342.91 K, 15980 kPa, x2 = 0.3818	977.13
342.91 K, 17026 kPa, x2 = 0.3818	978.96
342.91 K, 18022 kPa, x2 = 0.3818	980.7
342.91 K, 19019 kPa, x2 = 0.3818	982.41
343.15 K, 101 kPa, x2 = 0	1002.15
352.59 K, 4979 kPa, x2 = 0.199	974.07
352.59 K, 5990 kPa, x2 = 0.199	975.64
352.59 K, 7029 kPa, x2 = 0.199	977.28
352.59 K, 8024 kPa, x2 = 0.199	978.8
352.59 K, 9035 kPa, x2 = 0.199	980.29
352.59 K, 9983 kPa, x2 = 0.199	981.7
352.59 K, 11018 kPa, x2 = 0.199	983.2
352.59 K, 12014 kPa, x2 = 0.199	984.65
352.59 K, 13125 kPa, x2 = 0.199	986.24
352.59 K, 14000 kPa, x2 = 0.199	987.44
352.59 K, 15014 kPa, x2 = 0.199	988.92
352.59 K, 15934 kPa, x2 = 0.199	990.14
352.59 K, 17055 kPa, x2 = 0.199	991.66
352.59 K, 17954 kPa, x2 = 0.199	992.83
352.59 K, 19034 kPa, x2 = 0.199	994.28
352.59 K, 20005 kPa, x2 = 0.199	995.52
352.67 K, 1064 kPa, x2 = 0	992.39
352.67 K, 2003 kPa, x2 = 0	993.54
352.67 K, 3024 kPa, x2 = 0	994.79
352.67 K, 4003 kPa, x2 = 0	995.98
352.67 K, 5048 kPa, x2 = 0	997.22
352.67 K, 6013 kPa, x2 = 0	998.36
352.67 K, 7013 kPa, x2 = 0	999.51
352.67 K, 8050 kPa, x2 = 0	1000.73
352.67 K, 9018 kPa, x2 = 0	1001.82
352.67 K, 10003 kPa, x2 = 0	1002.93
352.67 K, 11003 kPa, x2 = 0	1004.07
352.67 K, 12004 kPa, x2 = 0	1005.16
352.67 K, 12998 kPa, x2 = 0	1006.25
352.67 K, 14005 kPa, x2 = 0	1007.34
352.67 K, 15038 kPa, x2 = 0	1008.46
352.67 K, 16006 kPa, x2 = 0	1009.49
352.67 K, 17027 kPa, x2 = 0	1010.58
352.67 K, 18001 kPa, x2 = 0	1011.6
352.67 K, 19031 kPa, x2 = 0	1012.65
352.67 K, 20017 kPa, x2 = 0	1013.74
352.85 K, 7014 kPa, x2 = 0.3818	941.65
352.85 K, 8124 kPa, x2 = 0.3818	944.24
352.85 K, 9071 kPa, x2 = 0.3818	946.38
352.85 K, 10020 kPa, x2 = 0.3818	948.55
352.85 K, 11000 kPa, x2 = 0.3818	950.66
352.85 K, 12010 kPa, x2 = 0.3818	952.84
352.85 K, 13005 kPa, x2 = 0.3818	954.93
352.85 K, 14021 kPa, x2 = 0.3818	956.99
352.85 K, 15021 kPa, x2 = 0.3818	958.98
352.85 K, 16002 kPa, x2 = 0.3818	960.92
352.85 K, 17007 kPa, x2 = 0.3818	962.89
352.85 K, 18002 kPa, x2 = 0.3818	964.77
352.85 K, 19018 kPa, x2 = 0.3818	966.66
353.15 K, 101 kPa, x2 = 0	989.76
362.38 K, 5067 kPa, x2 = 0.199	959.54
362.38 K, 6020 kPa, x2 = 0.199	961.18
362.38 K, 7006 kPa, x2 = 0.199	962.87
362.38 K, 8052 kPa, x2 = 0.199	964.61
362.38 K, 9004 kPa, x2 = 0.199	966.16
362.38 K, 9993 kPa, x2 = 0.199	967.76
362.38 K, 11055 kPa, x2 = 0.199	969.42
362.38 K, 12043 kPa, x2 = 0.199	970.93
362.38 K, 13005 kPa, x2 = 0.199	972.44
362.38 K, 14008 kPa, x2 = 0.199	973.98
362.38 K, 14980 kPa, x2 = 0.199	975.41
362.38 K, 16011 kPa, x2 = 0.199	976.94
362.38 K, 17005 kPa, x2 = 0.199	978.39
362.38 K, 18009 kPa, x2 = 0.199	979.82
362.38 K, 19011 kPa, x2 = 0.199	981.22
362.38 K, 20040 kPa, x2 = 0.199	982.7
362.51 K, 1007 kPa, x2 = 0	979.8
362.51 K, 2022 kPa, x2 = 0	981.13
362.51 K, 3029 kPa, x2 = 0	982.49
362.51 K, 4004 kPa, x2 = 0	983.74
362.51 K, 5006 kPa, x2 = 0	985.01
362.51 K, 6003 kPa, x2 = 0	986.27
362.51 K, 6999 kPa, x2 = 0	987.5
362.51 K, 7993 kPa, x2 = 0	988.73
362.51 K, 9007 kPa, x2 = 0	989.99
362.51 K, 9993 kPa, x2 = 0	991.16
362.51 K, 10997 kPa, x2 = 0	992.36
362.51 K, 11993 kPa, x2 = 0	993.56
362.51 K, 12838 kPa, x2 = 0	994.53
362.51 K, 14038 kPa, x2 = 0	995.94
362.51 K, 15044 kPa, x2 = 0	997.1
362.51 K, 16029 kPa, x2 = 0	998.18
362.51 K, 17006 kPa, x2 = 0	999.27
362.51 K, 18016 kPa, x2 = 0	1000.4
362.51 K, 18987 kPa, x2 = 0	1001.47
362.73 K, 8081 kPa, x2 = 0.3818	925.8
362.73 K, 9009 kPa, x2 = 0.3818	928.21
362.73 K, 10010 kPa, x2 = 0.3818	930.72
362.73 K, 11009 kPa, x2 = 0.3818	933.15
362.73 K, 11996 kPa, x2 = 0.3818	935.49
362.73 K, 13008 kPa, x2 = 0.3818	937.87
362.73 K, 14001 kPa, x2 = 0.3818	940.11
362.73 K, 15006 kPa, x2 = 0.3818	942.32
362.73 K, 16002 kPa, x2 = 0.3818	944.47
362.73 K, 17016 kPa, x2 = 0.3818	946.62
362.73 K, 18023 kPa, x2 = 0.3818	948.72
362.73 K, 19014 kPa, x2 = 0.3818	950.73
